Active and inactive are the calls of the source. The rule behind the calls is not given here.
Columns and labels:
Assay type in all cases: functional
Spodoptera litura [1] = assay: Insecticidal activity against third-instar larvae of Spodoptera litura infested compound-treated cabbage leaf assessed as mortality after 48 hr in presence of piperonyl butoxide
Procambarus clarkii = assay: Induction of depolarization in Procambarus clarkii (crayfish) giant axons assessed as transient inward sodium currents at -100 to -20 mV holding potential at 2 x 10 '-5 M
Nerve cord = assay: Induction of repetitive firing in excised nerve cord of Periplaneta americana (American cockroach) measured up to 32 min
Tetranychus urticae [2] = assay: Acaricidal activity against Tetranychus urticae (two-spotted spider mite) infested kidney bean leaf disk assessed as mortality measured after 48 hr
Periplaneta americana = assay: Insecticidal activity against Periplaneta americana (American cockroach) assessed as paralysis/mortality compound injected into abdomen after 24 hr
Spodoptera litura [3] = assay: Insecticidal activity against third-instar larvae of Spodoptera litura infested compound-treated cabbage leaf assessed as mortality after 48 hr
Tetranychus urticae [4] = assay: Ratio of etofenprox LC50 to compound LC50 for Tetranychus urticae (two-spotted spider mite) infested kidney bean leaf disk

Structure (SMILES)	log(1/MLD) (Spodoptera litura [1])	Activity (Procambarus clarkii)	log(1/MEC) (Nerve cord)	log(1/LC50) (Tetranychus urticae [2])	log(1/MLD) (Periplaneta americana)	log(1/LC50) (Spodoptera litura [3])	RatioLC50 (Tetranychus urticae [4])
CC(C)(COCc1cccc(Oc2ccccc2)c1)c1ccc(OC(F)(F)Cl)cc1	9.75	Active	6.14	5.34	9.55	4.96	–
CC(C)(COCc1cccc(Oc2ccccc2)c1)c1ccc(OC(F)(F)Br)cc1 [halfenprox]	9.77	Active	6.57	5.77	9.67	4.83	200
CC(C)(COCc1cccc(Oc2ccccc2)c1)c1ccc(OC(F)F)cc1	9.52	Active	7.73	3.75	9.03	4.7	–
CC(C)(COCc1cccc(Oc2ccccc2)c1)c1ccc(OC(F)(F)F)cc1	9.75	Active	7.45	5.14	9.64	5.36	–
CCOc1ccc(C(C)(C)COCc2cccc(Oc3ccccc3)c2)cc1 [ETOFENPROX]	9.79	Active	8	3.48	9.49	4.68	–
